Measured values from patent US10772893B2, “2-(morpholin-4-yl)-1,7-naphthyridines” (BAYER PHARMA AKTIENGESELLSCHAFT, priority 2014, dated 2020).

System: HeLa cells
Assay: Proliferation assay, crystal violet staining
Conditions: Homo sapiens, 96 h, read-out: Inhibition of HeLa cell proliferation, HeLa cells, 4 days incubation
Description: After 24 hours, the cells of one plate (zero plate) were dyed with crystal violet (see below), whereas the medium of the other plates was replaced with fresh culture medium (200 μl) to which the test substances were added in various concentrations (0 μM, and also in the range of 0.001-10 μM; the final concentration of the solvent dimethyl sulphoxide was 0.1 or 0.5%). The cells were incubated for 4 days in the presence of the test substances. […] After washing the fixed cells three times with water, the plates were dried at room temperature. The cells were stained by adding 100 μl/measurement point of a 0.1% strength crystal violet solution (pH adjusted to pH 3 by adding acetic acid). After washing the cells three times with water, the plates were dried at room temperature. The dye was dissolved by adding 100 μl/measurement point of a 10% strength acetic acid solution. […] The percentage change in cell growth was calculated by normalizing the measured values to the absorbance values of the zero plate (=0%) and the absorbance of the untreated (0 W) cells (=100%). The IC50 values were determined by means of a four parameter fit.

| IC50 [nM] | Compound |
| --- | --- |
| > 3000 | c1cc(-c2cc(N3CCOCC3)nc3c(-c4ccn[nH]4)nccc23)ccn1 [Example 221, 2-(morpholin-4-yl)-8-(1H-pyrazol-5-yl)-4-(pyridin-4-yl)-1,7-naphthyridine] |
| 355 | C[C@@H]1COCCN1c1cc(-c2ccccc2)c2ccnc(-c3cc[nH]n3)c2n1 [Example 27, 2-((R)-3-methylmorpholin-4-yl)-4-phenyl-8-(2H-pyrazol-3-yl)-[1,7]naphthyridine] |
| 2100 | C[C@@H]1COCCN1c1cc(OC(F)F)c2ccnc(-c3ccn[nH]3)c2n1 [Example 172, 4-(difluoromethoxy)-2-[(3R)-3-methylmorpholin-4-yl]-8-(1H-pyrazol-5-yl)-1,7-naphthyridine] |
| 211 | COc1ccc(-c2cc(N3CCOC[C@H]3C)nc3c(-c4ccn[nH]4)nccc23)cn1 [Example 95, 4-(6-methoxypyridin-3-yl)-2-[(3R)-3-methylmorpholin-4-yl]-8-(1H-pyrazol-5-yl)-1,7-naphthyridine] |
| 328 | C[C@@H]1COCCN1c1cc(-c2ccn(CCF)n2)c2ccnc(-c3ccn[nH]3)c2n1 [Example 158, 4-[1-(2-fluoroethyl)-1H-pyrazol-3-yl]-2-[(3R)-3-methylmorpholin-4-yl]-8-(1H-pyrazol-5-yl)-1,7-naphthyridine] |
| 61.6 | C[C@@H]1COCCN1c1cc(-c2ccnn2CCF)c2ccnc(-c3ccn[nH]3)c2n1 [Example 159, 4-[1-(2-fluoroethyl)-1H-pyrazol-5-yl]-2-[(3R)-3-methylmorpholin-4-yl]-8-(1H-pyrazol-5-yl)-1,7-naphthyridine] |
| 122 | CCn1nc(C)cc1-c1cc(N2CCOC[C@H]2C)nc2c(-c3ccn[nH]3)nccc12 [Example 113, 4-(1-ethyl-3-methyl-1H-pyrazol-5-yl)-2-[(3R)-3-methylmorpholin-4-yl]-8-(1H-pyrazol-5-yl)-1,7-naphthyridine] |
| 409 | Cc1nn(C)cc1-c1cc(N2CCOC[C@H]2C)nc2c(-c3ccn[nH]3)nccc12 [Example 249, 4-(1,3-dimethyl-1H-pyrazol-4-yl)-2-[(3R)-3-methylmorpholin-4-yl]-8-(1H-pyrazol-5-yl)-1,7-naphthyridine] |
| 1960 | CCS(=O)(=O)c1cc(N2CCOCC2)nc2c(-c3ccn[nH]3)nccc12 [Example 200, 4-(ethylsulfonyl)-2-(morpholin-4-yl)-8-(1H-pyrazol-5-yl)-1,7-naphthyridine] |
| 2920 | Oc1ccc(-c2cc(N3CCOCC3)nc3c(-c4ccn[nH]4)nccc23)cc1 [Example 326, 4-[2-(morpholin-4-yl)-8-(1H-pyrazol-5-yl)-1,7-naphthyridin-4-yl]phenol] |
| 3000 | COc1cc(-c2cc(N3CCOCC3)nc3c(-c4ccn[nH]4)nccc23)ccn1 [Example 351, 4-(2-methoxypyridin-4-yl)-2-(morpholin-4-yl)-8-(1H-pyrazol-5-yl)-1,7-naphthyridine] |
| 222 | C[C@@H]1COCCN1c1cc(-c2c[nH]nc2C(F)(F)F)c2ccnc(-c3ccn[nH]3)c2n1 [Example 252, 2-[(3R)-3-methylmorpholin-4-yl]-8-(1H-pyrazol-5-yl)-4-[3-(trifluoromethyl)-1H-pyrazol-4-yl]-1,7-naphthyridine] |
| 1530 | C[S+]([O-])c1cc(N2CCOCC2)nc2c(-c3ccn[nH]3)nccc12 (stereo not drawn) [Example 202, 4-(methylsulfinyl)-2-(morpholin-4-yl)-8-(1H-pyrazol-5-yl)-1,7-naphthyridine] |
| 1110 | CC(C)Cn1nccc1-c1cc(N2CCOC[C@H]2C)nc2c(-c3ccn[nH]3)nccc12 [Example 146, 4-(1-isobutyl-1H-pyrazol-5-yl)-2-[(3R)-3-methylmorpholin-4-yl]-8-(1H-pyrazol-5-yl)-1,7-naphthyridine] |

| Compound | IC50 [nM] |
| --- | --- |
| C[C@@H]1COCCN1c1cc(C2=CCNCC2)c2ccnc(-c3ccn[nH]3)c2n1 [Example 245, 2-[(3R)-3-methylmorpholin-4-yl]-8-(1H-pyrazol-5-yl)-4-(1,2,3,6-tetrahydropyridin-4-yl)-1,7-naphthyridine] | 343 |
